# Measurements from patent US10940206B2, “Ophthalmic composition comprising lipoic acid and a mucomimetic polymer” (OPHTALMIS MONACO, priority 2015, dated 2021).
# Key:
# [1] = Osmoprotective activity: cell viability (XTT assay) under hyperosmolar stress; format: cell-based, human; conditions: human, 0 h (pre-osmotic stress, after 17 h preincubation)
# Protocol: (§1) A study was carried out to determine the osmoprotective capacity of sodium lipoate (A) during hyperosmolar stress on human conjunctival (WKD) and corneal (HCE) cells. The osmoprotective activity of A, then A with B and C, was evaluated by measuring cell viability in particular. To that end, cells were preincubated for 17 h with the test substance(s). Next, the medium was removed and the cells were subjected to hyperosmolar stress by addition of sodium chloride (100 mM NaCl) to the culture medium (M199 for the WKD cells and KSFM for the HCE cells). Cellgrowth control cells were contacted with isotonic medium. Cell viability was analyzed preosmotic stress (0 h) in order to measure the effect of the molecules remaining in contact with the cells during the 17 h of incubation, then at 4 h, 8 h and 24 h post-induction of osmotic stress. The cell viability measurement was carried out via an XTT assay. Various concentrations of A were tested for the “molecule alone” tests: 0.0005%, 0.001%, 0.005%, 0.01% and 0.05% w/v. For the molecule mixture tests, the following concentrations were tested: for A: 0.001%, 0.005%, and 0.01% w/v; for B: 0.25% w/v; and for C: 0.5% and 1% w/v. To ensure the validity and the significance of the data, the results obtained were analyzed statistically. The results presented below result from the mean of 3 independent repetitions, carried out on different days.
# [2] = tested on: human conjunctival (WKD) and corneal (HCE) cells; assay: as above; format: cell-based; conditions: Homo sapiens, HCE; for viability at 0.0005 % strength: 0.0005% w/v; for viability at 0.001 % strength: 0.001% w/v; for viability at 0.005 % strength: 0.005% w/v; for viability at 0.01 % strength: 0.01% w/v; for viability at 0.05 % strength: 0.05% w/v
# Protocol: as §1
# [3] = 4 h post-induction of osmotic stress (100 mM NaCl)
# [4] = 8 h post-induction of osmotic stress (100 mM NaCl)
# [5] = 24 h post-induction of osmotic stress (100 mM NaCl)
structure (smiles),measurement,setting,value
"O=C(O)CCCCC1CCSS1 (centres unmarked) [sodium lipoate, 5-(1,2dithiolan-3-yl)pentanoic acid]","viability at 17 h, 0.0005 % w/v",[1]; 0.0005% w/v,99.9%
same,"viability at 17 h, 0.001 % w/v",[1]; 0.001% w/v,98.5%
same,"viability at 17 h, 0.005 % w/v",[1]; 0.005% w/v,103%
same,"viability at 17 h, 0.01 % w/v",[1]; 0.01% w/v,98.1%
same,"viability at 17 h, 0.05 % w/v",[1]; 0.05% w/v,56.3%
same,viability at 0.0005 % strength,[2]; [3],62.7%
same,viability at 0.0005 % strength,[2]; [4],38.5%
same,viability at 0.0005 % strength,[2]; [5],18.8%
same,viability at 0.001 % strength,[2]; [3],69.6%
same,viability at 0.001 % strength,[2]; [4],42.4%
same,viability at 0.001 % strength,[2]; [5],18.5%
same,viability at 0.005 % strength,[2]; [3],109%
same,viability at 0.005 % strength,[2]; [4],76.1%
same,viability at 0.005 % strength,[2]; [5],12.6%
same,viability at 0.01 % strength,[2]; [3],120%
same,viability at 0.01 % strength,[2]; [4],82.9%
same,viability at 0.01 % strength,[2]; [5],8.9%
same,viability at 0.05 % strength,[2]; [3],46%
same,viability at 0.05 % strength,[2]; [4],27.8%
same,viability at 0.05 % strength,[2]; [5],2.7%
